Reference: US20040038950A1, “Pharmaceutical composition for treating IL-1 related diseases or disorders” (priority 2002, published 2004)

Columns and labels:
[1] = system: type I collagen mRNA; assay: RT-PCR of type I collagen mRNA in chondrocytes; type: cell-based, human; details: 100 μM
Procedure: Chondrocytes were isolated from the knee joint of patient undergoing a knee replacement due to osteoarthritis. Cartilage was digested with 0.2% protease Type XIV (Sigma) for 1 hour, followed by 3-hour incubation with 0.2% collagenase Type IA (Sigma) at 37° C. Following the incubation, the undigested cartilage fragments were removed using a 70 μm Nylon sieve. Chondrocytes were washed with DPBS and maintained in monolayer culture for 7 days in Dulbecco's modified Eagle's medium (DMEM; Life Technologies Inc.) which contained 10% fetal bovine serum (FBS; Life Technologies), 100 units/ml penicillin-streptomycin (Life Technologies) and 25 μg/ml L-ascorbic acid (Sigma). All experiments were performed with primary or first passage cells. The preparation of chondrocytes in alginate beads was carried out with 4×10^6 cells per 1 ml of alginate. Alginate cultures were maintained for 7 days at 37° C., 5% CO2 and 95% humidity and incubated with various concentrations of DHEA (0, 10, 50 or 100 μM) for a varing period of time. DHEA was purchased from Sigma and used after dissolving either in ethanol or dimethyl sulfoxide (DMSO). After a desired incubation period, cells were harvested by solubilizing the alginate beads in citrate buffer (55 mM sodium citrate, 0.15 M NaCl, pH 7.0) for 10 min at 37° C. and by centrifugation (300 g, 5 min).
Total RNA from chondrocytes was extracted using RNeasy Mini Kit (QIAGEN). Reverse transcription from 1 μg of total RNA was conducted using First Strand cDNA Synthesis Kit (MBI Fermentas) according to manufacturer's recommendation with random hexamers. […] All reactions were determined to be in the linear range of amplification with the cycle number ranging from 14 to 30. The PCR products were analyzed by separation on a 2% agarose gel followed by ethidium bromide staining. Following electrophoresis, photographs were taken and analyzed using a densitometric program (TINA; Raytest Isotopenmeβgerate, Germany). […] After normalizing with respect to GAPDH, percentage increase or decrease was determined. […]

[2] = system: (IL-1β)-induced MMP-3 mRNA; assay: (IL-1β)-induced MMP-3 mRNA expression in chondrocytes, RT-PCR; type: cell-based, human; details: 100 μM DHEA with IL-1β, 72 hr
Procedure: (§1) Sixteen hours prior to a treatment, the complete culture medium was replaced with a serum-free medium. Chondrocyte alginate bead cultures were then treated with IL-1β ([…], (Calbiochem) and DHEA (0, 10, 50 or 100 μM) for 3 days.
(§2) Total RNA from chondrocytes was extracted using RNeasy Mini Kit (QIAGEN). Reverse transcription from 1 μg of total RNA was conducted using First Strand cDNA Synthesis Kit (MBI Fermentas) according to manufacturer's recommendation with random hexamers. The resulting cDNA was then amplified by polymerase chain reaction using AccuPower PCR Premix (Bioneer, Korea) in a final volume of 20 μl using three thermocycler temperatures (30 sec at […], 30 sec at 60° C., and 30 sec at […]). All reactions were determined to be in the linear range of amplification with the cycle number ranging from 14 to 30. The PCR products were analyzed by separation on a 2% agarose gel followed by ethidium bromide staining. Following electrophoresis, photographs were taken and analyzed using a densitometric program (TINA; Raytest Isotopenmeβgerate, Germany). Integrated density values for the genes in question were then normalized to the glyceraldehyde-3-phosphate dehydrogenase (GAPDH) values for a semiquantitative assessment. After normalizing with respect to GAPDH, percentage increase or decrease was determined. Each experiment was repeated at least three times. […]

[3] = system: (IL-1β)-induced iNOS mRNA; assay: (IL-1β)-induced iNOS gene expression in chondrocytes; type: cell-based, human; details: 10, 50, 100 μM with IL-1β, 72 hr
Procedure: as §1, §2

[4] = system: (IL-1β)-induced IL-6 gene expression; assay: (IL-1β)-induced IL-6 gene expression in chondrocytes; type: cell-based, human; details: 10, 50, 100 μM with IL-1β, 72 hr
Procedure: as §1, §2

[5] = system: (IL-1β)-induced Cox-2 gene expression; assay: (IL-1β)-induced Cox-2 gene expression in chondrocytes; type: cell-based, human; details: 10, 50, 100 μM with IL-1β, 72 hr
Procedure: as §1, §2

[6] = system: patients diagnosed to have degenerative arthritis; assay: Topical application of DHEA to arthritic patient; type: in vivo, human; details: for resting pain score: before 14.34; for joint effusion score: before 2.12; for medial joint line tenderness score: before 2.18; for motion pain score: before 8.11; for pain at ascending/descending stairs score: before 10.87
Procedure: Ten patients diagnosed to have degenerative arthritis were tested to investigate the therapeutic effect of DHEA in topical application. Testees had the symptoms including dolor of knee joint (resting or motion pain), swelling, deformation, tenderness, crepitation or stiffness of joint. Patients who had received intraarticular injection, steroid treatment or surgery within 1 month before this test were excluded, as well as those who had severe cardiac or liver diseases, kidney failure, gastrointestinal diseases, or poor systemic condition such as anomalotrophy. Besides, women who were pregnant or breast-feeding babies were excluded in this study.
The volunteers were randomly grouped into Group I and Group II, and subject to the experiment for topical application of DHEA. A portion of knee joint showing dolor symptom was coated with either 5% DHEA or PBS (phosphate buffered saline) twice a day for 1 month. Any alteration of symptom was checked prior to the application, 1 week and then again 1 month during the application regimen.
The severity of pain was scored ranging from 0 (most severe pain) to 20 points (no pain) at an interval of 5 points.
In addition, both joint effusion and medial joint-line tenderness were recorded during a physical test administered by a doctor based on the point rating scale: highness, 4; medium, 3; slightness, 2; and not found, 0.
The opinions on symptom were recorded as 5 categories relying on the subjective opinions of patients and the opinions of doctors regarding both dolor of patients and the results of physical tests: superiority, goodness, mediocrity, poorness and exceeding poorness.
In addition, the assessment regarding the level of improvement on symptoms was recorded in accordance with the following criteria: 3-step improvement, “exceeding improvement”; 2-step improvement, “improvement”; 1-step improvement, “slight improvement”; “no change”; and “aggravation”.

[7] = Group I (5 patients), 1 month after application
[8] = Group I, topical, 1 month after application
[9] = Group I, topical, 1 week after application
[10] = Group I, topical, 1 week and 1 month vs before application

C[C@]12CC[C@H](O)CC1=CC[C@@H]1[C@@H]2CC[C@]2(C)C(=O)CC[C@@H]12 [DHEA, dehyroepiandrosterone]
type I collagen mRNA, maximal inhibition ([1]; 72 hours): 28% | type I collagen production, reduced by ([1]; after 24-72 hr of culture): less than 50% | type I collagen mRNA expression ([1]; after 72 hr): markly inhibited | (IL-1β)-induced expression of MMP-3 mRNA, inhibition [2]: 73% | (IL-1β)-induced up-regulation of iNOS mRNA [3]: suppressed | (IL-1β)-induced IL-6 gene expression [4]: no significantly change | (IL-1β)-induced Cox-2 gene expression [5]: no significantly change | opinion of doctor: no change [6, 7]: 4 persons | opinion of doctor: slight improvement [6, 7]: 1 person | opinion of patient: aggravation [6, 7]: 1 person | opinion of patient: no change [6, 7]: 3 persons | opinion of patient: slight improvement [6, 7]: 1 person | resting pain score ([6]; Group I, topical 5% DHEA twice a day, 1 week after application): 15.29 points | joint effusion score [6, 8]: 2.27 points | medial joint line tenderness score [6, 8]: 2.54 points | motion pain score [6, 8]: 8.51 points | pain at ascending/descending stairs score [6, 8]: 10.49 points | resting pain score [6, 8]: 15.02 points | joint effusion score [6, 9]: 1.98 points | medial joint line tenderness score [6, 9]: 2.11 points | motion pain score [6, 9]: 8.34 points | pain at ascending/descending stairs score [6, 9]: 10.11 points | change of joint effusion [6, 10]: not a significant change | change of medial joint line tenderness [6, 10]: not a significant change | change of motion pain [6, 10]: not a significant change | change of pain at ascending/descending stairs [6, 10]: not a significant change | change of resting pain [6, 10]: not a significant change
